Reference: patent publication US20080090898A1, “Boosting immunity” (Mars, Incorporated, priority 2006, published 2008)

Legend:
[1] = tested on: CD4 T cells; experiment: Cytokine production of isolated CD4 T cells activated with anti CD3; type: cell-based, human
Method: (§1) CD4+ and CD8+ cells were isolated by positive selection. Briefly, 10×10^7 PBMC cells in 90 μl were incubated with 10 μl of either anti-CD4+ or CD8+ magnetic reagent and incubated at 4° C. for a half hour. The cells were then separated by magnetic cell sorting using a Miltenyi Biotec system, were counted and diluted to a concentration of 2×10^6 cells/ml with BioWhittaker X Vivo. Autologous plasma from the subject was added to a concentration of 1% by volume. A 96 well plate was treated with antihuman-CD3 in PBS (BD Biosciences) at a concentration of 0.5 μg/ml for 4 hours. After the 4 hour incubation, the plate was washed 4 times with PBS. Purified CD4+ or CD8+ cells were added to each well along with various concentrations of the individual test compounds or controls. The cultures were then incubated at 37° C. for 1 day and supernatants were harvested and stored at −80° C. Cytokine profiles were determined using a BD Cytometric Bead Array Human Inflammation KIT (BD Biosciences, San Diego, Calif.). Briefly, 50 μl of culture supernates and standards were added to 100 μl of capture beads and detection reagent. Tubes were incubated for 3 hours at room temperature, washed with 1 ml of wash buffer and centrifuged prior to collection of the supernate. Wash buffer (300 μl) was added and samples immediately analyzed on the flow cytometer after vortexing. Known positive and negative samples and including a standard curve were included with each assay and all samples analyzed in triplicate. In addition, cultured cells (1×10^6) were washed in PBS with 0.1% bovine serum albumin (PBS/BSA), resuspended in 100 μl PBS/BSA, and incubated with anti-human CD3, CD19, CD69 and CD83 antibody for 1 hour at 4° C. Cells were resuspended in 1.0 ml PBS/BSA and analyzed on the flow cytometer.

[2] = tested on: CD8 T cells; experiment: Cytokine production of isolated CD8 T cells activated with anti CD3; type: cell-based, human
Method: as §1, with “Briefly, 50 μl of culture supernates and standards were added to 100 μl of capture beads and detection reagent. Tubes were incubated for 3 hours at room temperature, washed with 1 ml of wash buffer and centrifuged prior to collection of the supernate.” left out, “In addition, cultured cells (1×10^6) were washed in PBS with 0.1% bovine serum albumin (PBS/BSA), resuspended in 100 μl PBS/BSA, and incubated with anti-human CD3, CD19, CD69 and CD83 antibody for 1 hour at 4° C.” left out

## COc1cc([C@H]2Oc3cc(O)cc(O)c3C[C@H]2O)ccc1O [3′-O-methyl-(−)-epicatechin]
[1]
  IFN-γ levels over media control and (−)-epicatechin treated cells: significantly higher levels
  IL-10 levels over media control and (−)-epicatechin treated cells: significantly higher levels
  TNF-α levels over media control and (−)-epicatechin treated cells: significantly higher levels
[2]
  IFN-γ amounts over the media controls: significantly higher amounts
